Consider two molecules from ChEMBL document CHEMBL3397038, “A coumarin lignanoid from the stems of Kadsura heteroclita” (2015).

Assay [1] relates to Hepatitis B virus. As to the kind of experiment: Antiviral activity against hepatitis B viral in human HepG2(2.2.15) cells assessed as decrease in surface antigen HBsAg secretion at 25 ug/ml after 7 days. Conditions: HepG2 2.2.15, 168 h. The assay is classed as functional.
Assay [2] concerns Hepatitis B virus. Kind of assay: Antiviral activity against hepatitis B viral in human HepG2(2.2.15) cells assessed as decrease in surface antigen HBeAg secretion at 25 ug/ml after 7 days. The assay is classed as functional. The note with it: HepG2 2.2.15, 168 h.
Assay [3] is described as follows: Antifibrotic activity in […] cells assessed as inhibition of acetaldehyde-stimulated cell growth at 50 uM/L. The format is functional.
Assay [4] deals with Primary neuron. As to the kind of experiment: Neuroprotective activity against serum-deprivation-induced neurotoxicity in rat primary cerebellar granule neuronal cells assessed as cell viability at 10 uM by MTT assay relative to control. The assay is classed as functional, cell-based. (In general: Formazan colour is commonly taken as a measure of viable cells.)
Assay [5] deals with PC-12. Kind of assay: Neuroprotective activity against serum-deprivation-induced neurotoxicity in rat PC12 cells assessed as cell viability at 10 uM after 48 hrs by MTT assay relative to control. The assay is classed as functional, cell-based.

Calls of active or inactive are those of the source. The rule behind the calls is not given here.

The inhibition is the relative decrease from the control value, in per cent. For the molecule `Nc1ccn([C@@H]2CS[C@H](CO)O2)c(=O)n1` [LAMIVUDINE], the inhibition at 25 µg/mL was found to be 10% in assay [1] and 46% in assay [2].

Take `O=c1oc2cc3c(cc2cc1[C@@H](CO)Cc1ccc2c(c1)OCO2)OCO3`: the inhibition at 25 µg/mL came to 57% in assay [1] and 48% in assay [2]. In addition, in assay [3], the inhibition at 50 µM came to 71%. Also, the outcome in assay [4] and in assay [5] was Active.
